In assay [1] the target is T1, hTGR5 (Homo sapiens, UniProt Q8TDU6).
T1 construct: expressed in transfected cells; host or cells: HEK293 cells, transiently co-transfected with the pCRE TA-Luciferase reporter
T1 sequence (Q8TDU6 1-330): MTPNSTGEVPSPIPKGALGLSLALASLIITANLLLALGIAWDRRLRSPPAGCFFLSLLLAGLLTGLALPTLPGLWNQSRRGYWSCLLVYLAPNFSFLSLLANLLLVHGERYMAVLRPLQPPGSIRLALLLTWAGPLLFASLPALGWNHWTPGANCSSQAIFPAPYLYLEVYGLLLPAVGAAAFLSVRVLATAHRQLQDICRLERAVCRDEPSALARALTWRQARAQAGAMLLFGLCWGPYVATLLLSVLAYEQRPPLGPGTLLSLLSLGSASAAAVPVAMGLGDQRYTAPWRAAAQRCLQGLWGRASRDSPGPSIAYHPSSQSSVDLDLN
Nature of the assay: TGR5/CRE Luciferase Assay (hTGR5). The format is cell-based. To be noted: for EC50: HEK 293 cells co-transfected with pCMV tag4b-TGR5h and pCRE TA-Luciferase, overnight incubation; for hTGR5 % trans: percentage of the 10 μM LCA value, HEK 293 cells transfected with hTGR5. On the procedure: (§1) TGR5/CRE Luciferase Assay
(§2) In the following Tables TGR5 activation by compounds of the invention and subsequent increase in intracellular cAMP were evaluated using a luciferase reporter gene assay. Human embryonic kidney (HEK) 293 cells were transiently co-transfected with pCMV tag4b-TGR5 h (to follow hTGR5 activation) or pCMV AC6-TGR5m (to follow mTGR5 activation) expression plasmids and the pCRE TA-Luciferase reporter plasmid using the JET PEI reagent (Polyplus transfection). Transfected cells were seeded in 96-well plates and incubated overnight with the test compounds at increasing concentrations tested in duplicate. Lithocolic acid (LCA) at 10 μM was used as a positive reference compound. The cAMP-dependent luciferase expression was followed using the BrightGlo reagent according to the manufacturer (Promega) instructions. Luminescence was read with a Mithras plate reader (Berthold) or a Victor3™ V1420 (Perkin Elmer). […] Concentration-response curves were fitted by a nonlinear regression analysis to a 4 parameter logistic equation

For assay [2], the target named is T2, mTGR5 (Mus musculus, UniProt Q80SS6).
T2 construct: expressed in transfected cells; host or cells: HEK293 cells, transiently co-transfected with the pCRE TA-Luciferase reporter
T2 sequence (Q80SS6 1-329): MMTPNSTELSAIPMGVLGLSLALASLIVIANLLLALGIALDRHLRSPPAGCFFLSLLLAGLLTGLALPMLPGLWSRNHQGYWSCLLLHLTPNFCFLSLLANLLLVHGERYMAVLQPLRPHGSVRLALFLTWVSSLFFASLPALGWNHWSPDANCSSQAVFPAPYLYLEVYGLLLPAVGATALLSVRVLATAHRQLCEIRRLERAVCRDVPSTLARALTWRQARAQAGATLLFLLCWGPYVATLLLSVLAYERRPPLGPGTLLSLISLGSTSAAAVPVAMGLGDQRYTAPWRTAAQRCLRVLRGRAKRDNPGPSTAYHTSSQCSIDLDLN
Nature of the assay: TGR5/CRE Luciferase Assay (mTGR5). The format is cell-based. To be noted: for mTGR5 % trans: percentage of the 10 μM LCA value, HEK 293 cells transfected with mTGR5; for EC50: HEK 293 cells co-transfected with pCMV AC6-TGR5m and pCRE TA-Luciferase, overnight incubation. On the procedure: as §1, §2

Structures are written as SMILES.

By EC50 is commonly meant the midpoint of the concentration-response curve. A lower EC50 goes with higher potency in that assay. `COc1ccccc1COC(=O)C1=C(C)N(C[C@H]2CCCO2)C(=O)C[C@H]1c1ccc(Cl)cc1` (racemic) [Compound 67, (2-methoxyphenyl)methyl (4S)-4-(4-chlorophenyl)-6-methyl-2-oxo-1-[[(2R)-tetrahydrofuran-2-yl]methyl]-3,4-dihydropyridine-5-carboxylate] showed a 50% effective concentration (EC50) in assay [1] of 0.02 µM.
Still for that read-out and setting: then `COc1ccccc1COC(=O)C1=C(C)N(C[C@H]2CCCO2)C(=O)C[C@H]1c1ccc(Cl)nc1` (racemic) [Example 148, (2-methoxyphenyl)methyl (4S)-4-(6-chloro-3-pyridyl)-6-methyl-2-oxo-1-[[(2R)-tetrahydrofuran-2-yl]methyl]-3,4-dihydropyridine-5-carboxylate and 2-methoxyphenyl)methyl (4R)-4-(6-chloro-3-pyridyl)-6-methyl-2-oxo-1-[[(2S)-tetrahydrofuran-2-yl]methyl]-3,4-dihydropyridine-5-carboxylate], with 0.001 µM.
On to `COc1ccccc1COC(=O)C1=C(C)N(C[C@@H]2CCCO2)C(=O)C[C@H]1c1ccc(Cl)nc1` (racemic) [Example 159, (2-Methoxyphenyl)methyl-(4S)-4-(6-chloro-3-pyridyl)-6-methyl-2-oxo-1-[[(2S)-tetrahydrofuran-2-yl]methyl]-3,4-dihydropyridine-5-carboxylate and (2-methoxyphenyl)methyl-(4R)-4-(6-chloro-3-pyridyl)-6-methyl-2-oxo-1-[[(2R)-tetrahydrofuran-2-yl]methyl]-3,4-dihydropyridine-5-carboxylate], for which, in assay [1], the EC50 came out at 0.037 µM and the hTGR5 % trans is 107%.
Turning to `COc1ccc(C2CC(=O)NC(C)=C2C(=O)OCc2ccccc2)cc1` (stereo not drawn) [Compound 6, 4-(4-Methoxy-phenyl)-2-methyl-6-oxo-1,4,5,6-tetrahydro-pyridine-3-carboxylic acid benzyl ester], a half-maximal effect in assay [1] (EC50) was put at 12.8 µM. This lies in the double-digit micromolar range.
For `CC1=C(C(=O)OCc2ccccc2)C(c2cccc(Cl)c2)CC(=O)N1` (stereo not drawn) [Compound 11, 4-(3-Chloro-phenyl)-2-methyl-6-oxo-1,4,5,6-tetrahydro-pyridine-3-carboxylic acid benzyl ester], the mTGR5 % trans in assay [2] was 10%.
On to `CC1=C(C(=O)OCc2ccccc2)C(c2ccc(Cl)cc2)CC(=O)N1` (stereo not drawn) [Compound 12, Benzyl 4-(4-chlorophenyl)-6-methyl-2-oxo-3,4-dihydro-1H-pyridine-5-carboxylate], for which, in assay [2], the EC50 was found to be 4.5 µM and the mTGR5 % trans is listed as 52%.
`CC1=C(C(=O)OCc2ccccc2)C(c2ccc(Cl)cc2F)CC(=O)N1` (stereo not drawn) [Compound 15, benzyl 4-(4-chloro-2-fluoro-phenyl)-6-methyl-2-oxo-3,4-dihydro-1H-pyridine-5-carboxylate] registered a concentration giving a half-maximal response (EC50) in assay [1] of 3.9 µM. This counts as single-digit micromolar.
In assay [2], `CC1=C(C(=O)OCc2ccccc2)C(c2ccc(Br)cc2)CC(=O)N1` (stereo not drawn) [Compound 16, benzyl 4-(4-bromophenyl)-6-methyl-2-oxo-3,4-dihydro-1H-pyridine-5-carboxylate] came in with a concentration giving a half-maximal response (EC50) of 1.7 µM and a mTGR5 % trans of 21%.
As for `CCC1=C(C(=O)OCc2ccccc2)C(c2ccc(Cl)cc2)CC(=O)N1C` (stereo not drawn) [Compound 18, Benzyl 4-(4-chlorophenyl)-6-ethyl-1-methyl-2-oxo-3,4-dihydropyridine-5-carboxylate], in assay [1], the midpoint of the response, the EC50, lay at 1.4 µM and the hTGR5 % trans is on record as 34%.
In assay [2], `CN1C=C(C(=O)OCc2ccccc2)C(c2ccc(Cl)cc2)CC1=O` (stereo not drawn) [Compound 24, Benzyl 4-(4-chlorophenyl)-1-methyl-2-oxo-3,4-dihydropyridine-5-carboxylate] displayed a half-maximal effective concentration (EC50) of 5.8 µM and a mTGR5 % trans of 34%.
In assay [2], `CCN1C(=O)CC(c2ccc(Cl)cc2)C(C(=O)OCc2ccccc2)=C1C` (stereo not drawn) [Compound 34, Benzyl 4-(4-chlorophenyl)-1-ethyl-6-methyl-2-oxo-3,4-dihydropyridine-5-carboxylate] came in with a half-maximal effective concentration (EC50) of 0.8 µM and a mTGR5 % trans of 70%.
In assay [2], `CCCN1C(=O)CC(c2ccc(Cl)cc2)C(C(=O)OCc2ccccc2)=C1C` (stereo not drawn) [Compound 35, Benzyl 4-(4-chlorophenyl)-6-methyl-2-oxo-1-propyl-3,4-dihydropyridine-5-carboxylate] came in with an EC50 of 0.8 µM and a mTGR5 % trans of 76%.
In assay [1], `CCCCN1C(=O)CC(c2ccc(Cl)cc2)C(C(=O)OCc2ccccc2)=C1C` (stereo not drawn) [Compound 36, Benzyl 1-butyl-4-(4-chlorophenyl)-6-methyl-2-oxo-3,4-dihydropyridine-5-carboxylate] came in with a half-maximal effective concentration (EC50) of 0.6 µM and a hTGR5 % trans of 54%.
`CC1=C(C(=O)OCc2ccccc2)C(c2ccc(Cl)cc2)CC(=O)N1CC1CC1` (stereo not drawn) [Compound 43, Benzyl 4-(4-chlorophenyl)-1-(cyclopropylmethyl)-6-methyl-2-oxo-3,4-dihydropyridine-5-carboxylate] returned an EC50 in assay [2] of 0.3 µM.
In assay [2], `CC1=C(C(=O)OCc2ccccc2)C(c2ccc(Cl)cc2)CC(=O)N1CCN(C)C` (stereo not drawn) [Compound 50, Benzyl 4-(4-chlorophenyl)-1-[2-(dimethylamino)ethyl]-6-methyl-2-oxo-3,4-dihydropyridine-5-carboxylate] returned an EC50 of 3.6 µM and a mTGR5 % trans of 77%.
On to `COC(=O)CN1C(=O)CC(c2ccc(Cl)cc2)C(C(=O)OCc2ccccc2)=C1C` (stereo not drawn) [Compound 57, Benzyl 4-(4-chlorophenyl)-1-(2-methoxy-2-oxo-ethyl)-6-methyl-2-oxo-3,4-dihydropyridine-5-carboxylate], for which the concentration giving a half-maximal response (EC50) in assay [2] is 0.2 µM.
The molecule `COCCN1C(=O)CC(c2ccc(Cl)cc2)C(C(=O)OCc2ccccc2OC)=C1C` (stereo not drawn) [Compound 64, (2-methoxyphenyl)methyl 4-(4-chlorophenyl)-1-(2-methoxyethyl)-6-methyl-2-oxo-3,4-dihydropyridine-5-carboxylate] registered a half-maximal effective concentration (EC50) in assay [1] of 0.1 µM. In other words, the sub-micromolar range.
As for `COc1ccccc1COC(=O)C1=C(C)N(CCO)C(=O)CC1c1ccc(Cl)cc1` (stereo not drawn) [Compound 65, (2-methoxyphenyl)methyl 4-(4-chlorophenyl)-1-(2-hydroxyethyl)-6-methyl-2-oxo-3,4-dihydropyridine-5-carboxylate], in assay [2], a half-maximal effect (EC50) was put at 0.3 µM and the mTGR5 % trans stood at 107%.
For the molecule `COCCN1C(=O)CC(c2ccc(Cl)cc2)C(C(=O)OCc2ccccc2Cl)=C1C` (stereo not drawn) [Example 87, (2-chlorophenyl)methyl 4-(4-chlorophenyl)-1-(2-methoxyethyl)-6-methyl-2-oxo-3,4-dihydropyridine-5-carboxylate], in assay [1], the half-maximal effective concentration (EC50) came out at 0.5 µM and the hTGR5 % trans came out at 67%.
For `COCCN1C(=O)CC(c2ccc(Cl)cc2)C(C(=O)OCCCc2ccccc2)=C1C` (stereo not drawn) [Example 111, 3-phenylpropyl 4-(4-chlorophenyl)-1-(2-methoxyethyl)-6-methyl-2-oxo-3,4-dihydropyridine-5-carboxylate] the same measures were 1.1 µM and 55%.
For `COCCN1C(=O)CC(c2ccc(Cl)cc2)C(C(=O)OCC2CCCCC2)=C1C` (stereo not drawn) [Example 113] the same measures were 1.1 µM and 57%.
For `COc1ccccc1COC(=O)C1=C(C)N(C[C@H]2CCCO2)C(=O)C[C@H]1c1ccc(Cl)cc1` [Example 167, (2-Methoxyphenyl)methyl-(4S)-4-(4-chlorophenyl)-6-methyl-2-oxo-1-[[(2R)-tetrahydrofuran-2-yl]methyl]-3,4-dihydropyridine-5-carboxylate] the same measures were 0.008 µM and 103%.

These data come from patent US9932309B2, “2-oxo-3,4-dihydropyridine-5-carboxylates and their use” (UNIVERSITE DE LILLE 2 DROIT ET SANTE, priority 2014, dated 2018).
